What was measured:
Assay in all cases: biochemical
Design in all cases: KINOMEscan active-site-directed competition binding panel, 468 kinases, percent of DMSO control at 1 uM
Conditions in all cases: KINOMEscan binding, percent of DMSO control; read-out: Ctrl%
BIKE = target: T1, BIKE (Homo sapiens, UniProt Q9NSY1)
T1 construct: gene BMP2K

BMPR1B = BMPR1B (Homo sapiens, UniProt O00238)
CAMK1G = CAMK1G (Homo sapiens, UniProt Q96NX5)
CAMKK2 = CAMKK2 (Homo sapiens, UniProt Q96RR4)
CDC2L2 = target: T2, CDC2L2 (Homo sapiens, UniProt Q9UQ88)
T2 construct: gene CDK11A

CDKL1 = CDKL1 (Homo sapiens, UniProt Q00532)
DAPK2 = DAPK2 (Homo sapiens, UniProt Q9UIK4)
DLK = target: T3, DLK (Homo sapiens, UniProt Q12852)
T3 construct: gene MAP3K12

EIF2AK1 = EIF2AK1 (Homo sapiens, UniProt Q9BQI3)
EPHA7 = EPHA7 (Homo sapiens, UniProt Q15375)
EPHB4 = EPHB4 (Homo sapiens, UniProt P54760)
HIPK1 = HIPK1 (Homo sapiens, UniProt Q86Z02)
JNK3 = target: T4, JNK3 (Homo sapiens, UniProt P53779)
T4 construct: gene MAPK10

NEK2 = NEK2 (Homo sapiens, UniProt P51955)
PIK3C2B = PIK3C2B (Homo sapiens, UniProt O00750)
[1] = target: T5, RPS6KA4(Kin.Dom.1-N-terminal) (Homo sapiens, UniProt O75676)
T5 construct: Kin.Dom.1-N-terminal

[2] = target: T6, RPS6KA4(Kin.Dom.2-C-terminal) (Homo sapiens, UniProt O75676)
T6 construct: Kin.Dom.2-C-terminal

[3] = target: T7, RSK1(Kin.Dom.1-N-terminal) (Homo sapiens, UniProt Q15418)
T7 construct: gene RPS6KA1; Kin.Dom.1-N-terminal

[4] = target: T8, RSK3(Kin.Dom.1-N-terminal) (Homo sapiens, UniProt Q15349)
T8 construct: gene RPS6KA2; Kin.Dom.1-N-terminal

TESK1 = TESK1 (Homo sapiens, UniProt Q15569)
WEE2 = WEE2 (Homo sapiens, UniProt P0C1S8)
YES = target: T9, YES (Homo sapiens, UniProt P07947)
T9 construct: gene YES1

YSK4 = target: T10, YSK4 (Homo sapiens, UniProt Q56UN5)
T10 construct: gene MAP3K19

T9 sequence (P07947 whole entry): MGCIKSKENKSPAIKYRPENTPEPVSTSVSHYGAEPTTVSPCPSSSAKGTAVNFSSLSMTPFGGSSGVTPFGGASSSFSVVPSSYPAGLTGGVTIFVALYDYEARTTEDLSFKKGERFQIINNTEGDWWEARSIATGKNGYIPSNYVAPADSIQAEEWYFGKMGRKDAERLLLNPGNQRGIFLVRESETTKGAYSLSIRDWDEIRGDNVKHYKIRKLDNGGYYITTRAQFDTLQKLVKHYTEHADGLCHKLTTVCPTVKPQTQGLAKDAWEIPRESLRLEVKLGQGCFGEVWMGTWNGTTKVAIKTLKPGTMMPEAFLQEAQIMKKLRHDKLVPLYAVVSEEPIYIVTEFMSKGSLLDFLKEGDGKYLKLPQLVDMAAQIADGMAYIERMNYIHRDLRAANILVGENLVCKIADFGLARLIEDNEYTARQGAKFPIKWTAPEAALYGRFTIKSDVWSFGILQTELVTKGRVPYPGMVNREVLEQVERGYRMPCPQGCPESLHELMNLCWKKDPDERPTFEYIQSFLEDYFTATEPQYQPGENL
PIK3C2B, sequence (O00750 whole entry): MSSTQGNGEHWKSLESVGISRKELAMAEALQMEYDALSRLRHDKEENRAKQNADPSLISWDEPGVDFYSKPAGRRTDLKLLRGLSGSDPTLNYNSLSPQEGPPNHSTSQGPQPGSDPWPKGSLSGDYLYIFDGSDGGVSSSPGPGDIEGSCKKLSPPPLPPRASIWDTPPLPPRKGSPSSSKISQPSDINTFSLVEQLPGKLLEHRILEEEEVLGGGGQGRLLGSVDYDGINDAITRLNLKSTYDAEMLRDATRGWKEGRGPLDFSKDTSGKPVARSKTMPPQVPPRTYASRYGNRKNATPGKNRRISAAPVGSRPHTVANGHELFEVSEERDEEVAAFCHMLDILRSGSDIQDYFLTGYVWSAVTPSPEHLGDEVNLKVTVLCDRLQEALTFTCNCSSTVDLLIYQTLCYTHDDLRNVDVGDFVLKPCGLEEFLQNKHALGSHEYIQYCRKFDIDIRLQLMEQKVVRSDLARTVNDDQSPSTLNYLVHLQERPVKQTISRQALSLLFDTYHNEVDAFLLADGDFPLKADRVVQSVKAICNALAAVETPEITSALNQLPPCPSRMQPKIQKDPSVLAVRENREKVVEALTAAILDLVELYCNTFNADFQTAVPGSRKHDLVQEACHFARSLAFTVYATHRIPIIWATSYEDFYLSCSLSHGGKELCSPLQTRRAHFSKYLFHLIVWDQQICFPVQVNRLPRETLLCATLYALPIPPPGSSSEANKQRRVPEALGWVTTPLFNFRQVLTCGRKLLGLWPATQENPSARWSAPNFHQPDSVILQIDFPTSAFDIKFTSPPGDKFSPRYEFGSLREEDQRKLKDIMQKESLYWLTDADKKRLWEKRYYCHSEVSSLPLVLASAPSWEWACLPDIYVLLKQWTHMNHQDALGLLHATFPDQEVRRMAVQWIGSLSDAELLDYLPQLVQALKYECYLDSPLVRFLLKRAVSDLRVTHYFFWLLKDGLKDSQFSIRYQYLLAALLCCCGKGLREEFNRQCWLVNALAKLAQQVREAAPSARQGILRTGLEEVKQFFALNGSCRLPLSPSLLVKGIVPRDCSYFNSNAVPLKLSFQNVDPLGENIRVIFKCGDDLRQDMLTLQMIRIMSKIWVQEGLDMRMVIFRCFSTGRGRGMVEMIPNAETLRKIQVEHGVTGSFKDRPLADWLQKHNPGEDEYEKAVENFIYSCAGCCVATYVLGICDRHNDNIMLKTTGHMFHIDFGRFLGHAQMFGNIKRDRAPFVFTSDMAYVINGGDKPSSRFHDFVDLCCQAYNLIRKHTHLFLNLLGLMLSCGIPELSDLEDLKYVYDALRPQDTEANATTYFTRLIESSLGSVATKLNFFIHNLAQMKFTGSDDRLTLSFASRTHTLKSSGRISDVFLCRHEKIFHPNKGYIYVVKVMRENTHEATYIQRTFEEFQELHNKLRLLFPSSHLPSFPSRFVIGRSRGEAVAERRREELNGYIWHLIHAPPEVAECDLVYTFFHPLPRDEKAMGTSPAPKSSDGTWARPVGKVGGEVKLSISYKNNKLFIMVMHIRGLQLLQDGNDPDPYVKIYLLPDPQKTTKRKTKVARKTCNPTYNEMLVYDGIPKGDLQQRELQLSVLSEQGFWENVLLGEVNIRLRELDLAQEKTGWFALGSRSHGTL
T7 sequence (Q15418 whole entry): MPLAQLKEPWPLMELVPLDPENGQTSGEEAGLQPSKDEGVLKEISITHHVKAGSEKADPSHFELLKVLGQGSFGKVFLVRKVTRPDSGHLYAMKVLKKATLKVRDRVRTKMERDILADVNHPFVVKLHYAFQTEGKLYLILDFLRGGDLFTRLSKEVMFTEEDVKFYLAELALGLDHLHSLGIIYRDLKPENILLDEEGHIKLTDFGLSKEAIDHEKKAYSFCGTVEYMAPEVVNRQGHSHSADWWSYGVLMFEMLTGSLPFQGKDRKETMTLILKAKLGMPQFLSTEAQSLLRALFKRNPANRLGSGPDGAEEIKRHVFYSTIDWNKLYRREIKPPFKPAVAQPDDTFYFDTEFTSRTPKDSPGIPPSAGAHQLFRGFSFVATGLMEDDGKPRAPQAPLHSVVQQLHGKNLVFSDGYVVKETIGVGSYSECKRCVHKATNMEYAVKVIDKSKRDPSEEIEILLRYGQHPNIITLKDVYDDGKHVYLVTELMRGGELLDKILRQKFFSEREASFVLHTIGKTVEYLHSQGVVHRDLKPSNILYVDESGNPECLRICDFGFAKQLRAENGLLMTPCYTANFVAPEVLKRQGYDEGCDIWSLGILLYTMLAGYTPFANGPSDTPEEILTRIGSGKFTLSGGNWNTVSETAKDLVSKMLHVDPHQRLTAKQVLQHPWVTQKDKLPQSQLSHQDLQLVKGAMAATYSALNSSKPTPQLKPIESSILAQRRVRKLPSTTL
HIPK1, sequence (Q86Z02 whole entry): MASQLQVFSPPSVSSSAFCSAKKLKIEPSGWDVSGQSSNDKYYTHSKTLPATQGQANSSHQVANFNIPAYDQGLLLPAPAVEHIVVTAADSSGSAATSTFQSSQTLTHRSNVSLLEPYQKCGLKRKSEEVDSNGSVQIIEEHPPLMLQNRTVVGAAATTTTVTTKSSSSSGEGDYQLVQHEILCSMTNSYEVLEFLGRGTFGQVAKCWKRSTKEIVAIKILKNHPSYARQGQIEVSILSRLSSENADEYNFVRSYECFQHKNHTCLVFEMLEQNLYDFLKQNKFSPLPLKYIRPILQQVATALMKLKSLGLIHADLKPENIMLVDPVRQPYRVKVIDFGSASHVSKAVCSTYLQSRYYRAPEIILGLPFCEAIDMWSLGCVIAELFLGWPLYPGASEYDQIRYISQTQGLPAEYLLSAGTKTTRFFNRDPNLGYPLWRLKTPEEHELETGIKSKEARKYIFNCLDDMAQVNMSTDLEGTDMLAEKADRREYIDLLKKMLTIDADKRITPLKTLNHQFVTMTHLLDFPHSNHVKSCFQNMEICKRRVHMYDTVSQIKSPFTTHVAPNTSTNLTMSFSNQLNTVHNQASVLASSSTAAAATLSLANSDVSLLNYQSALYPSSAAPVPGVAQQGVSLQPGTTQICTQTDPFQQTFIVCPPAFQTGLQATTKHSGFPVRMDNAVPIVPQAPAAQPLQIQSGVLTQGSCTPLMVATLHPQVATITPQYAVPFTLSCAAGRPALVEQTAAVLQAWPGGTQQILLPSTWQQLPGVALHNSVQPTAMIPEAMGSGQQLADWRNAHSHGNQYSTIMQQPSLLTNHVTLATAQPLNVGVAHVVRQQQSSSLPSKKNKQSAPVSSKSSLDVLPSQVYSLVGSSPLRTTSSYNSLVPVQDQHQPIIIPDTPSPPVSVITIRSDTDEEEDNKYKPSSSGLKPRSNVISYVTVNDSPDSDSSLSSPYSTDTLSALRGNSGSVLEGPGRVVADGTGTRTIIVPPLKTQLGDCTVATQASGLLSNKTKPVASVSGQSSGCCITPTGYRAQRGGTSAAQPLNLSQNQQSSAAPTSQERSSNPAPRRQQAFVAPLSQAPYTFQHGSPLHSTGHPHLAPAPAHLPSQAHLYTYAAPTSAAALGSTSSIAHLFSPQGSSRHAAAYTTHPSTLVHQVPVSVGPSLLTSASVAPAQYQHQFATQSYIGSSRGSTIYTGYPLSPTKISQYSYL
NEK2, sequence (P51955 whole entry): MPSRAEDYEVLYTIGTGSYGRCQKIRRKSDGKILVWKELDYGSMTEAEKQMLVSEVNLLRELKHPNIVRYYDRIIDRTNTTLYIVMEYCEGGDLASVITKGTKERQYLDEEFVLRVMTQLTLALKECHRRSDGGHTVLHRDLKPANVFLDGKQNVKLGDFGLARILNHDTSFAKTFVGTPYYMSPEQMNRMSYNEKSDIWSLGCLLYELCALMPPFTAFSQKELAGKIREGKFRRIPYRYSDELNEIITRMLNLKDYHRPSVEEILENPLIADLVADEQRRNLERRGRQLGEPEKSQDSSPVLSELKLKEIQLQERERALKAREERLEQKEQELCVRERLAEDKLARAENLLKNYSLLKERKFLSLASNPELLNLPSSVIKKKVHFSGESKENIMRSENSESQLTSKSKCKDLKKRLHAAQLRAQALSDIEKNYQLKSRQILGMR
DAPK2, sequence (Q9UIK4 whole entry): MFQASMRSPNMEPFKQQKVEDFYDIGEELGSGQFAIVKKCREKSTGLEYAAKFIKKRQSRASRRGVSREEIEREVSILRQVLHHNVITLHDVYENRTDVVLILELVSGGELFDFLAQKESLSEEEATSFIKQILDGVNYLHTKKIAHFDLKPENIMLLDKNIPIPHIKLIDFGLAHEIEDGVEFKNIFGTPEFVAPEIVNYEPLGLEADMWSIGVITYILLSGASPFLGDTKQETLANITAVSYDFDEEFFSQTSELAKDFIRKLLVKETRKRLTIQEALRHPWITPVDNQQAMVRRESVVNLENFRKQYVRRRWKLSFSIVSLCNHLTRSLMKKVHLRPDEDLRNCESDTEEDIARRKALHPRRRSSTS

## Cc1ccc(NC(=O)c2cccc(C(F)(F)F)c2)cc1Nc1cc(-c2cccnc2)nc2[nH]ccc12 [HZX-02-059]
BIKE
  remaining binding at 1 µM: 94%
BMPR1B
  remaining binding at 1 µM: 91%
CAMK1G
  remaining binding at 1 µM: 100%
CAMKK2
  remaining binding at 1 µM: 93%
CDC2L2
  remaining binding at 1 µM: 80%
CDKL1
  remaining binding at 1 µM: 89%
DAPK2
  remaining binding at 1 µM: 100%
DLK
  remaining binding at 1 µM: 100%
EIF2AK1
  remaining binding at 1 µM: 79%
EPHA7
  remaining binding at 1 µM: 66%
EPHB4
  remaining binding at 1 µM: 30%
HIPK1
  remaining binding at 1 µM: 74%
JNK3
  remaining binding at 1 µM: 96%
NEK2
  remaining binding at 1 µM: 66%
PIK3C2B
  remaining binding at 1 µM: 100%
[1]
  remaining binding at 1 µM: 93%
[2]
  remaining binding at 1 µM: 97%
[3]
  remaining binding at 1 µM: 72%
[4]
  remaining binding at 1 µM: 98%
TESK1
  remaining binding at 1 µM: 77%
WEE2
  remaining binding at 1 µM: 100%
YES
  remaining binding at 1 µM: 86%
YSK4
  remaining binding at 1 µM: 100%

Source: PMC8799717, “Pharmacological targeting PIKfyve and tubulin as an effective treatment strategy for double-hit lymphoma” (Cell Death Discovery, 2022)
